What is called TGI is the reduction of tumour growth relative to the control group. What is called inhibition is the share of the control response that was lost under treatment.

These results are taken from ChEMBL document CHEMBL5226350, “NSAIDs: Old Acquaintance in the Pipeline for Cancer Treatment and Prevention─Structural Modulation, Mechanisms of Action, and Bright Future” (J Med Chem, 2021).

Molecules are shown by their SMILES.

The test system of assay [1] is HT-29. In words: Antitumor activity against human HT-29 cells xenografted in sc dosed mouse assessed as reduction in tumor volume measured after 10 days relative to control. Type of assay: functional. Further details: scale not given: the % may be the effect or the level left. The settings on record: time 10 day. (In general: Xenograft models place foreign cells or tissue in a host animal.)

The test system of assay [2] is HT-29. The assay is described as follows: Antitumor activity against human HT-29 cells xenografted in ip dosed mouse assessed as reduction in tumor volume measured after 21 days relative to control. Type of assay: functional. Set-up: scale not given: the % may be the effect or the level left. The following applies: time 21 day.
In assay [3] the test system is HT-29. The assay is described as follows: Antitumor activity against human HT-29 cells expressing Trx-1 xenografted in sc dosed mouse in presence of DFMO by immunohistochemical staining based analysis relative to control. Type of assay: functional.
Assay [4] concerns HT-29. In words: Antitumor activity against human HT-29 cells expressing Trx-1 xenografted in sc dosed mouse assessed as reduction in tumor volume in presence of DFMO by immunohistochemical staining based analysis relative to control. Type of assay: functional. Further details: scale not given: the % may be the effect or the level left.
For assay [5], the system named is HT-29. In words: Antitumor activity against human HT-29 cells xenografted in sc dosed Apc/Min mouse assessed as reduction in tumor growth in presence of DFMO relative to control. Type of assay: functional.
The next assay concerns A549. The assay is described as follows: Antitumor activity against human A549 cells xenografted in ip dosed mouse assessed as tumor growth inhibition at 200 mg/kg measured after 6 weeks relative to control. Type of assay: functional. Further details: scale not given: the % may be the effect or the level left.
Another assay has as its system U-118-MG. The assay is described as follows: Antitumor activity against human U-118-MG cells xenografted in sc dosed BALB/c mouse assessed as tumor growth inhibition at 20 mg/kg measured after 29 days relative to control. Type of assay: functional. The settings on record: 696 h, time 29 day, read-out: TGI.
A further assay has as its system PANC-1. In words: Antitumor activity against human PANC-1 cells xenografted in po dosed BALB/c mouse assessed as tumor growth inhibition measured after 30 days relative to control. Type of assay: functional. The following applies: time 30 day.
For the next assay, the system named is Mus musculus. In words: Inhibition of pancreatitis-accelerated acinar-to-ductal metaplasia in C57Bl/6J mouse harboring Kras G12D mutant at 100 mg/kg ,po administered via gavage measured after 3 weeks in presence of cerulein relative to control. Type of assay: toxicity, organism-based. The settings on record: 504 h.
The test system of the next assay is A-431. The assay is described as follows: Antitumor activity against human A-431 cells xenografted in sc dosed mouse assessed as tumor growth inhibition measured after 15 days in presence of diclofenac relative to control. The settings on record: time 15 day. Type of assay: functional.

As for `O=C(CCCO[N+](=O)[O-])Oc1ccccc1C(=O)Oc1ccc(-c2cc(=S)ss2)cc1`, the Activity in the assay with HT-29 [1] came to 85%.

Regarding `CCOP(=O)(OCC)OCc1cccc(OC(=O)c2ccccc2OC(C)=O)c1`, in the assay with HT-29 [2], the Activity is given as greater than 60%.

In the case of `CCOP(=O)(OCC)OCCCCOC(=O)CC1=C(C)/C(=C/c2ccc([S+](C)[O-])cc2)c2ccc(F)cc21` (stereo not given), the Activity is on record as 50% with HT-29 [3] and 83% in the assay on HT-29 [4]. Further, the TGI in the assay on HT-29 [5] came out at 90%.

In the case of `CCOP(=O)(OCC)OCCCCNC(=O)C(C)c1ccc(CC(C)C)cc1` (stereo not given), the Activity with A549 is listed as greater than 95%.

Consider `CCOP(=O)(OCC)OCC(CNC(=O)C(C)c1ccc(CC(C)C)cc1)OP(=O)(OCC)OCC` (stereo not given), for which the inhibition in vivo at 20 mg/kg in the assay on U-118-MG is 77%.

For `CCOP(=O)(OCC)OCC(COC(=O)c1ccccc1OC(C)=O)OP(=O)(OCC)OCC` (stereo not given), the inhibition of tumour growth (TGI) in the assay with PANC-1 amounted to 78%. For the same compound, in the assay with Mus musculus, the inhibition at 100 mg/kg is 83%.

For `NCCCC(N)(C(=O)O)C(F)F` (stereo not given) [EFLORNITHINE], the TGI in the assay with A-431 was determined as 90%.
